Measured values from patent US20230312587A1, “PTERIDINONE COMPOUNDS AND USES THEREOF” (Vertex Pharmaceutical Incorporated, priority 2018, published 2023).

tested on: β-catenin-TCF-mediated reporter transcription activity in Colo 205 cells; assay: Colo 205 reporter assay (TCF/LEF luciferase); format: cell-based; details: Homo sapiens, COLO 205, 5 h, Colo 205 TCF/LEF luciferase reporter, five hours after addition of compound; read-out: TCF reporter Colo205 IC50
In short: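 Luciferase signal from a TCF/LEF-driven reporter, stably integrated in Colo 205 colon cancer cells, was measured 5 h after compound addition.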

SMILES	IC50 [nM]
Cc1ccc(O[C@H]2C[C@H](Nc3nc(C)c4c(n3)N(C)[C@@H](C)C(=O)N4C)C2)cc1 [Compound 338, (7S)-4,5,7,8-tetramethyl-2-((trans-3-(p-tolyloxy)cyclobutyl)amino)-7,8-dihydropteridin-6(5H)-one]	1000 to 5000
COc1ccc(O[C@H]2C[C@H](Nc3nc(C)c4c(n3)N(C)[C@@H](C)C(=O)N4)C2)cc1 [Compound 342, (7S)-2-((trans-3-(4-methoxyphenoxy)cyclobutyl)amino)-4,7,8-trimethyl-7,8-dihydropteridin-6(5H)-one]	1000 to 5000
COc1ccc(O[C@H]2C[C@H](Nc3nc(C)c4c(n3)N(C)[C@@H](C)C(=O)N4C)C2)cc1 [Compound 343, (7S)-2-((trans-3-(4-methoxyphenoxy)cyclobutyl)amino)-4,5,7,8-tetramethyl-7,8-dihydropteridin-6(5H)-one]	≥ 5000
COc1cc(F)ccc1O[C@H]1C[C@H](Nc2nc(C)c3c(n2)N(C)[C@@H](C)C(=O)N3C)C1 [Compound 345, (7S)-2-((trans-3-(4-fluoro-2-methoxyphenoxy)cyclobutyl)amino)-4,5,7,8-tetramethyl-7,8-dihydropteridin-6(5H)-one]	300 to 1000
Cc1nc(N[C@H]2C[C@H](Oc3ccc(OCC(F)(F)F)nc3)C2)nc2c1N(C)C(=O)[C@H](C)N2C [Compound 346, (7S)-4,5,7,8-tetramethyl-2-((trans-3-((6-(2,2,2-trifluoroethoxy)pyridin-3-yl)oxy)cyclobutyl)amino)-7,8-dihydropteridin-6(5H)-one]	300 to 1000
Cc1nc(N[C@H]2C[C@@H](Sc3ccc(OC(F)(F)F)cc3)C2)nc2c1N(C)C(=O)[C@H](C)N2C [Compound 348, (7S)-4,5,7,8-tetramethyl-2-((cis-3-((4-(trifluoromethoxy)phenyl)thio)cyclobutyl)amino)-7,8-dihydropteridin-6(5H)-one]	1000 to 5000
Cc1nc(N[C@H]2C[C@H](Oc3cc(F)c(O)c(F)c3)C2)nc2c1NC(=O)[C@H](C)N2C [Compound 349, (7S)-2-((trans-3-(3,5-difluoro-4-hydroxyphenoxy)cyclobutyl)amino)-4,7,8-trimethyl-7,8-dihydropteridin-6(5H)-one]	≥ 5000
COc1ccc(O[C@H]2C[C@H](Nc3nc(C)c4c(n3)N(C)[C@@H](C)C(=O)N4)C2)cc1F [Compound 350, (7S)-2-((trans-3-(3-fluoro-4-methoxyphenoxy)cyclobutyl)amino)-4,7,8-trimethyl-7,8-dihydropteridin-6(5H)-one]	300 to 1000
COc1ccc(O[C@H]2C[C@H](Nc3nc(C)c4c(n3)N(C)[C@@H](C)C(=O)N4C)C2)cc1F [Compound 351, (7S)-2-((trans-3-(3-fluoro-4-methoxyphenoxy)cyclobutyl)amino)-4,5,7,8-tetramethyl-7,8-dihydropteridin-6(5H)-one]	1000 to 5000
COc1ccc(O[C@H]2C[C@H](Nc3nc(C)c4c(n3)N(C)[C@@H](C)C(=O)N4)C2)cc1OC [Compound 352, (7S)-2-((trans-3-(3,4-dimethoxyphenoxy)cyclobutyl)amino)-4,7,8-trimethyl-7,8-dihydropteridin-6(5H)-one]	1000 to 5000
COc1ccc(O[C@H]2C[C@H](Nc3nc(C)c4c(n3)N(C)[C@@H](C)C(=O)N4C)C2)cc1OC [Compound 353, (7S)-2-((trans-3-(3,4-dimethoxyphenoxy)cyclobutyl)amino)-4,5,7,8-tetramethyl-7,8-dihydropteridin-6(5H)-one]	≥ 5000
COc1ccc(O[C@H]2C[C@H](Nc3nc(C)c4c(n3)N(C)[C@@H](C)C(=O)N4)C2)c(F)c1 [Compound 354, (7S)-2-((trans-3-(2-fluoro-4-methoxyphenoxy)cyclobutyl)amino)-4,7,8-trimethyl-7,8-dihydropteridin-6(5H)-one]	1000 to 5000
COc1ccc(O[C@H]2C[C@H](Nc3nc(C)c4c(n3)N(C)[C@@H](C)C(=O)N4C)C2)c(F)c1 [Compound 355, (7S)-2-((trans-3-(2-fluoro-4-methoxyphenoxy)cyclobutyl)amino)-4,5,7,8-tetramethyl-7,8-dihydropteridin-6(5H)-one]	1000 to 5000
Cc1nc(N[C@H]2C[C@H](Oc3ccc(F)nc3)C2)nc2c1N(C)C(=O)[C@H](C)N2C [Compound 358, (7S)-2-((trans 3-((6-fluoropyridin-3-yl)oxy)cyclobutyl)amino)-4,5,7,8-tetramethyl-7,8-dihydropteridin-6(5H)-one]	1000 to 5000

More lines, now with the values ahead:

IC50 [nM]	SMILES
300 to 1000	Cc1nc(N[C@H]2C[C@@H](Sc3ccc(OC(F)(F)F)cc3)C2)nc2c1NC(=O)[C@H](C)N2C [Compound 336, (7S)-4,7,8-trimethyl-2-((cis-3-((4-(trifluoromethoxy)phenyl)thio)cyclobutyl)amino)-7,8-dihydropteridin-6(5H)-one]
300 to 1000	Cc1nc(N[C@H]2C[C@H](Oc3ccnc(C(F)(F)F)c3)C2)nc2c1N(C)C(=O)[C@H](C)N2C [Compound 337, (7S)-4,5,7,8-tetramethyl-2-((trans-3-((2-(trifluoromethyl)pyridin-4-yl)oxy)cyclobutyl)amino)-7,8-dihydropteridin-6(5H)-one]
300 to 1000	Cc1ccc(O[C@H]2C[C@H](Nc3nc(C)c4c(n3)N(C)[C@@H](C)C(=O)N4)C2)cc1 [Compound 339, (7S)-4,7,8-trimethyl-2-((trans-3-(p-tolyloxy)cyclobutyl)amino)-7,8-dihydropteridin-6(5H)-one]
< 300	Cc1nc(N[C@H]2C[C@H](Oc3ccc(C(F)(F)F)cc3)C2)nc2c1NC(=O)[C@H](C)N2C [Compound 340, (7S)-4,7,8-trimethyl-2-((trans-3-(4-(trifluoromethyl)phenoxy)cyclobutyl)amino)-7,8-dihydropteridin-6(5H)-one]
< 300	Cc1nc(N[C@H]2C[C@H](Oc3ccc(C(F)(F)F)cc3)C2)nc2c1N(C)C(=O)[C@H](C)N2C [Compound 341, (7S)-4,5,7,8-tetramethyl-2-((trans-3-(4-(trifluoromethyl)phenoxy)-cyclobutyl)-amino)-7,8-dihydropteridin-6(5H)-one]
300 to 1000	COc1cc(F)ccc1O[C@H]1C[C@H](Nc2nc(C)c3c(n2)N(C)[C@@H](C)C(=O)N3)C1 [Compound 344, (7S)-2-((trans-3-(4-fluoro-2-methoxyphenoxy)cyclobutyl)amino)-4,7,8-trimethyl-7,8-dihydropteridin-6(5H)-one]
< 300	Cc1nc(N[C@H]2C[C@H](Oc3ccc(OCC(F)(F)F)nc3)C2)nc2c1NC(=O)[C@H](C)N2C [Compound 347, (7S)-4,7,8-trimethyl-2-((trans-3-((6-(2,2,2-trifluoroethoxy)pyridin-3-yl)oxy)cyclobutyl)amino)-7,8-dihydropteridin-6(5H)-one]
< 300	Cc1nc(N[C@H]2C[C@H](Oc3ccc(OC(F)(F)F)c(F)c3)C2)nc2c1NC(=O)[C@H](C)N2C [Compound 359, (7S)-2-((trans-3-(3-fluoro-4-(trifluoromethoxy)phenoxy)cyclobutyl)amino)-4,7,8-trimethyl-7,8-dihydropteridin-6(5H)-one]
< 300	Cc1nc(N[C@H]2C[C@H](Oc3ccc(OC(F)(F)F)c(F)c3)C2)nc2c1N(C)C(=O)[C@H](C)N2C [Compound 360, (7S)-2-((trans 3-(3-fluoro-4-(trifluoromethoxy)phenoxy)cyclobutyl)amino)-4,5,7,8-tetramethyl-7,8-dihydropteridin-6(5H)-one]
